Results as given in patent publication US20120309821A1, “Use of epigallocatechin-3-gallate for immune regulation” (NATIONAL DEFENSE MEDICAL CENTER, priority 2011, published 2012).

Key:
Format in all cases: in vivo, mouse
NLRP3 = test: Western blot of NLRP3 in kidney; settings: 120 mg/kg by gavage daily; week 34; increase seen in disease control
Method: Female NZB/W F1 mice were purchased from the Animal Center of the National Taiwan University (Taipei, Taiwan, ROC) and, at 12 weeks of age, were divided into two groups, one of which was given normal saline and served as the disease control, while the other was given 120 mg/kg body weight of EGCG (Ryss Lab, Inc., CA, USA) (this dose is a slight modification of those used in previous in vivo studies) by gavage daily till sacrificed at 34-weeks-old. 8-Week-old NZB/W F1 female mice (prior to onset of autoantibody production) were used as normal controls. Urine samples were collected in metabolic cages every 2 weeks and urine protein levels were measured, and serum samples were used to measure serum levels of blood urea nitrogen (BUN) and creatinine (Cr) as described previously (Ka, S. M. et al. Decoy receptor 3 ameliorates an autoimmune crescentic glomerulonephritis model in mice. J Am Soc Nephrol 18:2473-2485; 2007). All animal experiments were performed upon the ethical approval of the Institutional Animal Care and Use Committee of the National Defense Medical Center, Taiwan and according to the ethical rules in the NIH Guide for the Care and Use of Laboratory Animals. […] Antibodies to histone H3 (Cell Signaling) or β-actin (Santa Cruz) were used as internal controls for the nuclear and cytosolic target proteins, respectively.

IL-1β = test: Serum IL-1β ELISA; settings: 120 mg/kg by gavage daily; week 34; vs disease control mice
Method: (§1) Female NZB/W F1 mice were purchased from the Animal Center of the National Taiwan University (Taipei, Taiwan, ROC) and, at 12 weeks of age, were divided into two groups, one of which was given normal saline and served as the disease control, while the other was given 120 mg/kg body weight of EGCG (Ryss Lab, Inc., CA, USA) (this dose is a slight modification of those used in previous in vivo studies) by gavage daily till sacrificed at 34-weeks-old. 8-Week-old NZB/W F1 female mice (prior to onset of autoantibody production) were used as normal controls. Urine samples were collected in metabolic cages every 2 weeks and urine protein levels were measured, and serum samples were used to measure serum levels of blood urea nitrogen (BUN) and creatinine (Cr) as described previously (Ka, S. M. et al. Decoy receptor 3 ameliorates an autoimmune crescentic glomerulonephritis model in mice. J Am Soc Nephrol 18:2473-2485; 2007). All animal experiments were performed upon the ethical approval of the Institutional Animal Care and Use Committee of the National Defense Medical Center, Taiwan and according to the ethical rules in the NIH Guide for the Care and Use of Laboratory Animals. Serum levels of IL-1β and IL-18 were measured using commercial ELISA kits (BD Biosciences) according to the manufacturer's instructions.

superoxide anion = test: Superoxide anion (ROS) levels in serum, urine and kidney; settings: 120 mg/kg by gavage daily, week 34
Method: as §1, with “Kidney in situ superoxide anion production was determined by dihydroethidium (DHE) labeling. Fluorescent images were quantified by counting the percentage of positive nuclei in the total nuclei per kidney cross-section. Superoxide anion” for “Serum”, “in serum” for “of IL-1β”, “kidney tissues” for “IL-18”, “as described previously and” for “using commercial ELISA kits (BD Biosciences) according to”, “results expressed as reactive luminescence units (RLU) per 15 min per milligram dry weight (i.e., RLU/15 min/mg dry weight).” for “manufacturer's instructions.”

anti-dsDNA antibodies = test: Serum anti-dsDNA antibody ELISA; settings: 120 mg/kg by gavage daily; week 34; increase over normal control
Method: as §1, with “All animal experiments were performed upon the ethical approval of the Institutional Animal Care and Use Committee of the National Defense Medical Center, Taiwan and according to the ethical rules in the NIH Guide for the Care and Use of Laboratory Animals.” left out, “anti-dsDNA antibodies” for “IL-1β and IL-18”, “an anti-mouse dsDNA enzyme-linked immunosorbent assay (ELISA) kit (Alpha Diagnostic, TX, USA)” for “commercial ELISA kits (BD Biosciences)”, “instructions. The absorbance at 450 nm was measured using an ELISA plate reader (Bio-Tek, VT, USA).” for “instructions.”

IL-18 = test: Serum IL-18 ELISA; settings: 120 mg/kg by gavage daily; week 34; vs disease control mice
Method: as §1

For Epigallocatechin-3-gallate [EGCG], the “levels of NLRP3 protein in kidney tissues” value (NLRP3) was “inhibited”, the “serum levels of IL-1β” value (IL-1β) was “significantly lower” and the “levels of superoxide anion in the kidney” value (superoxide anion; kidney) was “inhibited”. The “superoxide anion levels in the serum” value (superoxide anion; serum) was “decreased by EGCG treatment to levels similar to those in normal control mice”, the “superoxide anion levels in the urine” value (superoxide anion; urine) was “decreased by EGCG treatment to levels similar to those in normal control mice” and the “serum anti-dsDNA antibody levels” value (anti-dsDNA antibodies) was “not inhibited”. For the same substance, the “serum levels of IL-18” value (IL-18) was “significantly lower”.
